Laboratory results published in patent publication US6569902B2, “Nitrone inhibition of cancer development” (Oklahoma Medical Research Foundation, priority 2000, dated 2003).
Read-outs that look alike come from different tables or passages of the source.

How the values were obtained:
rats fed the CDAA diet = settings: cited from earlier work
[1] = test system: rat liver microsome peroxidation; settings: read-out: IC50, inhibition of rat liver microsome peroxidation; cited from earlier work
[2] = test system: livers of male Wistar rats fed the CDAA diet; assay: Example 2: histological liver injury (fibrosis, fatty liver); format: in vivo, rat; settings: high dose 0.090%, CDAA diet 16 weeks
From the text: (§1) Animal experiment. After acclimation, rats were divided equally into 22 groups consisting of 5 animals each. Animals in group 1 received the CDAA diet alone. […] Groups 5-7, 8-10, 11-13 and 14-16 received the CDAA diet containing the low, middle, and high doses of 4-OHPBN, 3-OHPBN, 2-OHPBN and 2-SPBN, respectively. Group 17 received the CSAA diet alone. […] All animals were sacrificed by exsanguination under light ether anesthesia 16 weeks after commencement, and the livers excised. Slices 5-mm-thick were taken from the left lateral, median and right lateral lobes of the livers, fixed in 10% neutrally-buffered formalin for 24 hours and then embedded in paraffin. Five serial 4-μm-thick sections were prepared from each fixed liver slice and used for histological and immunohistochemical assessment as described below. The remaining portions of the livers were immediately frozen under liquid nitrogen and stored at −80° C. until use.
(§2) Histological and immunohistochemical assessments. Histological assessment was performed using sections routinely stained with hematoxylin/eosin and Masson's trichrome procedures. Gradation of fibrosis was quantitatively evaluated in groups 1, 4, 7, 10, 13, 16 and 17 by calculating the percent area occupied by collagen fiber stained blue by Masson's trichrome method using an IPAP image analyzing system (Sumika Technoservice Corp., City of Osaka, Osaka, Japan). GST-P-positive lesions were visualized immunohistochemically. Lesions consisting of more than 6 cells were quantified using the IPAP system as described elsewhere (Kishida et al. 2000). The amount of apoptosis and the cellular proliferative activity were determined in groups 1, 4, 7, 10, 13, 16 and 17, using the double staining techniques by combination of the GST-P immunohistochemistry as above with the in situ terminal deoxynucleotidyl transferase-mediated dUTP-biotin nick end-labeling method (Gold et al. 1994) and the enhanced polymer one-step staining method for proliferating cell nuclear antigen (Tsutsumi et al. 1995), respectively. Numbers of apoptotic and proliferating hepatocytes among the 1000-5000 hepatocytes in GST-P-positive lesions and 5000 hepatocytes in surrounding tissue were counted under light microscopy to obtain percentages that are hereafter referred as apoptotic and proliferative indices, respectively.
(§3) Statistics. Inter-group differences in quantitative data for multiple groups were recognized to be significant, when p values smaller than 0.05 were obtained by the Dunnett multiple comparison test employed after one-way analysis of variance to determine the variation among the group means followed by the Bartlett's test to determine the homogeniety of variance.

[3] = test system: GST-P-positive lesions in livers of male Wistar rats fed the CDAA diet; assay: Example 2: numbers and sizes of GST-P-positive liver lesions, CDAA diet for 16 weeks; format: in vivo, rat; settings: for effect on the number or sizes of the GST-P-positive lesions: CDAA diet
Protocol: Animals. A total of 110 male Wistar rats were obtained at 5 weeks of age from Charles River Japan, Inc., Atsugi, Kanagawa, Japan. Experimentation began after a 1-week acclimation on a basal diet (CE-2 diet, Clea Japan, Meguro, Tokyo, Japan). Rats were housed 5 each in plastic cages with white flake bedding (Kansai Animal Corp., City of Kyoto, Kyoto, Japan) in a standard atmosphere (temperature, 25±3° C.; relative humidity, 55±8%; ventilation, 10-15/hour; and a 12-hour dark/light cycle). Free access to food and tap water was allowed throughout the acclimation and experimental periods.
Diets and chemicals. The CDAA diet and its control, a choline-supplemented, L-amino acid-defined (CSAA) diet (Nakae et al. 1992; and Nakae et al. 1990) were obtained from Dyets, Inc., Bethlehem, Pa. […] 2-Sulfoxy-PBN (2-SPBN) was purchased from Aldrich Chemical Co. (Milwaukee, Wis.).
as §1, §2, §3

[4] = test system: livers of male Wistar rats fed the CDAA diet; assay: Example 2: oxidative hepatocyte injuries (8-OHdG, TBARS); format: in vivo, rat; settings: for nuclear DNA 8-OHdG content increased by CDAA diet feeding: all doses, CDAA diet 16 weeks
From the text: as §1
Determination of oxidative hepatocyte injuries. Levels of oxidative damage to the hepatocytes were determined on frozen liver samples. Oxidative damage to nuclear DNA was assessed as previously described, using the amount of 8-hydroxydeoxyguanosine (8-OHdG) to 10^6 deoxyguanosine (dG) ratio as a parameter (Nakae et al. 1995). Oxidative injury to extra-nuclear components was assessed as described elsewhere, by determining picomole malondialdehyde equivalent (MDA eq.) levels of 2-thiobarbituric acid-reacting substances (TBARS) per milligram protein (Nakae et al. 1990).
as §3

[5] = test system: hepatocytes of male Wistar rats fed the CDAA diet; assay: Example 2: apoptotic and proliferative indices in GST-P-positive lesions and surrounding tissue; format: in vivo, rat; settings: high dose 0.090%
From the text: as §1, §2, §3

c1ccc(Nc2ccc(Nc3ccccc3)cc2)cc1 [N,N′-diphenyl-p-phenylenediamine]
effect on sizes and numbers of GST-P-positive lesions (rats fed the CDAA diet; livers of rats fed the CDAA diet (Nakae et al. 1994)): reduces the sizes of GST-P-positive lesions without affecting their numbers

Cc1c(C)c2c(c(C)c1O)CC[C@@](C)(CCC[C@H](C)CCC[C@H](C)CCCC(C)C)O2 [Alpha tocopherol]
effect on any of the parameters (rats fed the CDAA diet; rat, in vivo): very little effect

O=C(CBr)c1ccc(Br)cc1 [BPB, p-bromophenocybromide]
activity in suppressing the size of the nodules (rats fed the CDAA diet; rat, in vivo): little activity

CCCCCCCCCCCCCCCCCCOC1=C(O)C([C@@H](O)CO)OC1=O (stereo partly shown) [CV3611]
lowering of nodule size (rats fed the CDAA diet; 0.05% level): 44%

Cc1c(C)c2c(c(C)c1O)CCC(C)(C(=O)O)O2 (stereo not shown) [Trolox]
effect on any of the parameters (rats fed the CDAA diet; rat, in vivo): very little effect
IC50 [1]: 40 µM

CC(=O)Oc1ccccc1C(=O)O [Acetylsalicylic acid]
effect on nodule size, nodule number and 8-OHdG content (rats fed the CDAA diet; not nearly as potent as PBN): some effect

CC(C)(C)[N+]([O-])=Cc1ccc(O)cc1 [4-OHPBN, 4-hydroxyphenyl N-tert-butylnitrone]
grade of fibrosis versus group 1 [2]: significantly lower
sizes of GST-P-positive lesions, % of the group 1 value ([3]; high dose 0.090% in CDAA diet): 18%
sizes of GST-P-positive lesions, % of the group 1 value ([3]; low dose 0.009% in CDAA diet): 24%
sizes of GST-P-positive lesions, % of the group 1 value ([3]; middle dose 0.045% in CDAA diet): 19%
nuclear DNA 8-OHdG content increased by CDAA diet feeding [4]: significantly inhibited
TBARS level enhanced by CDAA feeding ([4]; all three doses): significantly exerted an effect
apoptotic index in the surrounding tissue, % of the group 1 value [5]: about 40%
proliferative index in the lesions, % of the group 1 value [5]: approximately 31%
proliferative index in the surrounding tissue, % of the group 1 value [5]: about 49%

CC(Cc1ccc(O)c(O)c1)C(C)Cc1ccc(O)c(O)c1 (stereo not shown) [NGDA, nordihydroguaiaric acid]
lowering of nodule size (rats fed the CDAA diet; 0.1% level): 39%

CC(C)(C)[N+]([O-])=Cc1ccccc1S(=O)(=O)O [2-SPBN, 2-sulfoxyphenyl N-tert-butylnitone]
grade of fibrosis versus group 1 [2]: no affect
effect on the number or sizes of the GST-P-positive lesions [3]: Neither 2-OHPBN nor 2-SPBN had any affect
nuclear DNA 8-OHdG content increased by CDAA diet feeding [4]: Neither 2-OHPBN nor 2-SPBN decreased
TBARS level enhanced by CDAA feeding ([4]; all three doses): Neither 2-OHPBN nor 2-SPBN affected
effect on apoptotic indices [5]: Neither 2-OHPBN nor 2-SPBN altered

Cc1cc(C(C)(C)C)c(O)c(C(C)(C)C)c1 [BHT]
IC50 [1]: 6 µM

CC(C)(C)[N+]([O-])=Cc1cccc(O)c1 [3-OHPBN, 3-hydroxyphenyl N-tert-butylnitrone]
grade of fibrosis versus group 1 [2]: significantly lower
sizes of GST-P-positive lesions, % of the group 1 value ([3]; high dose 0.090% in CDAA diet): 9%
nuclear DNA 8-OHdG content increased by CDAA diet feeding [4]: significantly inhibited
TBARS level enhanced by CDAA feeding ([4]; high dose 0.090% only): significantly inhibited
apoptotic index in the surrounding tissue, % of the group 1 value [5]: about 40%

CCCCCCCCCCCCCCCCCCOC1=C(O)[C@@H]([C@@H](O)CO)OC1=O [2-O-octadecylascorbic acid]
inhibition of rat hepatocarcinogenesis (rats fed the CDAA diet; chronic feeding in the CDAA diet (Mizumoto et al. 1994)): inhibits rat hepatocarcinogenesis by chronic feeding in the CDAA diet greater than its hydrophilic parent, L-ascorbic acid

CC(C)(C)[N+]([O-])=Cc1ccccc1O [2-OHPBN, 2-hydroxyphenyl N-tert-butylnitone]
grade of fibrosis versus group 1 [2]: no affect
effect on the number or sizes of the GST-P-positive lesions [3]: Neither 2-OHPBN nor 2-SPBN had any affect
nuclear DNA 8-OHdG content increased by CDAA diet feeding [4]: Neither 2-OHPBN nor 2-SPBN decreased
TBARS level enhanced by CDAA feeding ([4]; all three doses): Neither 2-OHPBN nor 2-SPBN affected
effect on apoptotic indices [5]: Neither 2-OHPBN nor 2-SPBN altered
